One data set deals with NLRP3 inflammasome. The experiment in a line: IL-1β secretion assay (LPS-primed, nigericin-activated THP-1 cells, MSD readout). The note with it: Homo sapiens, read-out: IL1b IC50. Format: cell-based. The procedure, abridged: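 THP-1 monocytes primed with LPS (10 ng/mL, 3 h, 37 °C), then co-incubated 2 h with serially diluted compound and nigericin 10 μM (final). Supernatant IL-1β measured by MSD electrochemiluminescence immunoassay. IC50 derived from four-parameter logistic fit of % inhibition versus concentration.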

Data set [1] in a line: Brain over plasma ratio evaluation. Format: in vivo. Particulars: mouse, brain and plasma, iv; female C57B16 mice, single i.v. 1 mg/kg, 0.25 h post dosing, geometric mean of 3 animals. The protocol: Brain Over Plasma Ratio Evaluation
A solution of 3 mg of compound in a generic vehicle (Glycofurol/solutol/Dextrose 5%: 10%/5%/85%, adjusted at pH3), final concentration 0.2 mg/ml, are stirred overnight at ambient temperature whilst protected from light.
Female C57B16 mice between the ages of 8-12 weeks are administered with the prepared solution, as single intravenous dose of 1 mg/kg into the tail vein with a dose volume of 5 ml/kg. A total of 3 animal replicates are evaluated for each compound utilizing a terminal sampling approach. After 0.25 h post dosing, under anesthesia, 400 μL of blood and the whole brain are collected. Blood sample is centrifuged at 4° C. for 10 minutes at 1500 g; brain is weighted, homogenized using deionized water to give a final ratio of (1/2:w/v). Plasma and brain concentrations are measured by an exploratory LC-MS/MS method.
Individual brain over plasma concentration ratio is calculated for each animal, and geometric mean value is reported.

The test system of another data set is TNF-α secretion. In words: TNF-α secretion assay (PMA-differentiated THP-1 cells, LPS-triggered, MSD readout). Format: cell-based. Particulars: Homo sapiens, LPS 24 h; for inhibition at 3 µM: compound at 3 μM; for inhibition at 10 µM: compound at 10 μM. As to the method:
Monocytic THP-1 cells (DSMZ) were maintained in RPMI media (RPMI 1640 Medium (1×) +10% FBS, biowest S181H). Cells were then differentiated at 160,000 cells per well in 96-well flat bottom cell culture plates with RPMI+0.1% Bovine Serum Albumin solution and 0.5 μM phorbol 12-myristate 13-acetate (PMA; Sigma, ref:P8139) overnight at 37° C. Experimental compounds were prepared and added as described above. TNF-α secretion was triggered by the addition of 0.5 μg/mL LPS (invivoGen, tlrl-3pelps) and cells were incubated for 24 h. 2.5 μL supernatant was removed, and TNF-α levels were monitored using an MSD assay (mesoscale, K15049) according to manufacturers' instructions.
IC50 values were calculated from the plot of percentage of inhibition versus the inhibitor concentration by a logistics fit according to: y=A2+(A1−A2)/(1+(x/IC50)^p) where y is the %-inhibition at the inhibitor concentration, x. A1 is the lowest inhibition value, i.e., 0%, and A2 the maximum inhibition value, i.e., 100%. The exponent, p, is the Hill coefficient. The curve fitting was conducted with an internally developed software.

Molecules are shown by their SMILES. Structures can show the parent of a compound that is named as a salt. Where two headings read alike, the source gives them in different places.

As a reminder, the IC50 is the concentration at which inhibition is half-maximal. As usually defined, the Kp is the ratio of the level in a tissue or fluid to that in plasma or blood. Take `CC(C)c1nn(CC(=O)N[C@@H]2CCCN(CC3CC(F)(F)C3)C2)c(=O)c2cc3ccsc3n12.O=CO` [Example 43, (R)—N-(1-((3,3-difluorocyclobutyl)methyl)piperidin-3-yl)-2-(8-isopropyl-5-oxothieno [3′,2′:4,5]pyrrolo[1,2-d][1,2,4]triazin-6(5H)-yl)acetamide formate]: in the data set with NLRP3 inflammasome (THP-1, LPS-primed), the half-maximal inhibitory concentration (IC50) turned out to be 0.133 µM. For the same molecule, the concentration ratio (Kp) at 0.25 h in data set [1] was 0.42.

Regarding `CC(C)c1nn(CC(=O)N[C@@H]2CCCN(CCCF)C2)c(=O)c2cc3ccsc3n12.O=CO` [Example 41, (R)—N-(1-(3-fluoropropyl)piperidin-3-yl)-2-(8-isopropyl-5-oxothieno[3′,2′:4,5]pyrrolo[1,2-d][1,2,4]triazin-6(5H)-yl)acetamide formate], the half-maximal inhibitory concentration (IC50) in the data set with NLRP3 inflammasome (THP-1, LPS-primed) came to 0.037 µM. Also, in data set [1], the Kp at 0.25 h amounted to 1.56.

Consider `CC(C)c1nn(CC(=O)NC2CCCN(C(C)(C)C)C2)c(=O)c2cc3cc(Br)sc3n12` (centres unmarked) [Example 59, 2-(4-bromo-12-isopropyl-9-oxo-3-thia-1,10,11-triazatricyclo[6.4.0.02,6]dodeca-2(6),4,7,11-tetraen-10-yl)-N-(1-tert-butyl-3-piperidyl)acetamide], for which the IC50 with NLRP3 inflammasome (THP-1, LPS-primed) amounted to 0.034 µM. Moreover, the Kp at 0.25 h in data set [1] turned out to be 1.15.

One may read the inhibition as the drop in the measured response relative to a control, in per cent. `CC(C)c1nn(CC(=O)N[C@@H]2CCCN(C3CCC3)C2)c(=O)c2cc3ccsc3n12.O=CO` [Example 11, (R)—N-(1-cyclobutylpiperidin-3-yl)-2-(8-isopropyl-5-oxothieno[3′,2′:4,5]pyrrolo[1,2-d][1,2,4]triazin-6(5H)-yl)acetamide formate]: in the data set with TNF-α secretion, the inhibition at 3 µM is 20.1% and the inhibition at 10 µM is -12.7%. Further, the IC50 with NLRP3 inflammasome (THP-1, LPS-primed) was found to be 0.045 µM. Besides, the concentration ratio (Kp) at 0.25 h in data set [1] was determined as 3.2.

For the molecule `CC(C)c1nn(CC(=O)N[C@@H]2CCCN(C3CCC3)C2)c(=O)c2cc3cc(Cl)sc3n12.O=CO` [Example 10, (R)-2-(2-chloro-8-isopropyl-5-oxothieno[3′,2′:4,5]pyrrolo[1,2-d][1,2,4]triazin-6(5H)-yl)-N-(1-cyclobutylpiperidin-3-yl)acetamide formate], in the data set on TNF-α secretion, the inhibition at 3 µM stood at 3% and the inhibition at 10 µM was -11.9%. For the same molecule, in the data set on NLRP3 inflammasome (THP-1, LPS-primed), the half-inhibitory concentration (IC50) is 0.101 µM. Also, the Kp at 0.25 h in data set [1] is 5.84.

In the case of `CC(C)c1nn(CC(=O)N[C@@H]2CCCN(C3CC3)C2)c(=O)c2cc3cc(Cl)sc3n12.O=C(O)C(F)(F)F` [Example 6, (R)-2-(2-chloro-8-isopropyl-5-oxothieno[3′,2′:4,5]pyrrolo[1,2-d][1,2,4]triazin-6(5H)-yl)-N-(1-cyclopropylpiperidin-3-yl)acetamide 2,2,2-trifluoroacetate], the IC50 in the data set on NLRP3 inflammasome (THP-1, LPS-primed) is 0.158 µM. The Kp at 0.25 h in data set [1] is 7.58.

For `C[C@H](O)CN1CCC[C@@H](NC(=O)Cn2nc(C3CC3)n3c(cc4ccsc43)c2=O)C1` [Example 22, 2-(8-cyclopropyl-5-oxothieno[3′,2′:4,5]pyrrolo[1,2-d][1,2,4]triazin-6(5H)-yl)-N—((R)-1-((S)-2-hydroxypropyl)piperidin-3-yl)acetamide], in the data set with TNF-α secretion, the inhibition at 3 µM is -2.9% and the inhibition at 10 µM was found to be 14.5%. For the same molecule, in the data set with NLRP3 inflammasome (THP-1, LPS-primed), the 50% inhibitory concentration (IC50) is 0.4 µM.

As for `CC(C)c1nn(CC(=O)N[C@@H]2CCCN(CC3CC3)C2)c(=O)c2cc3ccsc3n12` [Example 28, (R)—N-(1-(cyclopropylmethyl)piperidin-3-yl)-2-(8-isopropyl-5-oxothieno[3′,2′:4,5]pyrrolo [1,2-d][1,2,4]triazin-6(5H)-yl)acetamide formate], in the data set on TNF-α secretion, the inhibition at 3 µM turned out to be 34.4% and the inhibition at 10 µM was -45.5%. Also, in the data set on NLRP3 inflammasome (THP-1, LPS-primed), the concentration for half-maximal inhibition (IC50) was 0.775 µM.

Regarding `O=C(Cn1nc(C2CC2)n2c(cc3cc(Cl)sc32)c1=O)N[C@@H]1CCCN(C2CC2)C1` [Example 13, (R)-2-(2-chloro-8-cyclopropyl-5-oxothieno[3′,2′:4,5]pyrrolo[1,2-d][1,2,4]triazin-6(5H)-yl)-N-(1-cyclopropylpiperidin-3-yl)acetamide], in the data set with TNF-α secretion, the inhibition at 3 µM worked out at 5.2% and the inhibition at 10 µM was 22.2%. For the same molecule, in the data set on NLRP3 inflammasome (THP-1, LPS-primed), the IC50 was determined as 0.168 µM.

In the case of `C=O.CC(C)c1nn(CC(=O)N[C@@H]2CCCN(CC3CC3(F)F)C2)c(=O)c2cc3ccsc3n12` (stereo partly drawn) [Example 18, N-((3R)-1-((2,2-difluorocyclopropyl)methyl)piperidin-3-yl)-2-(8-isopropyl-5-oxothieno [3′,2′:4,5]pyrrolo[1,2-d][1,2,4]triazin-6(5H)-yl)acetamide compound with formaldehyde], in the data set on TNF-α secretion, the inhibition at 3 µM was 9.6% and the inhibition at 10 µM amounted to 21.6%. Besides, the concentration for half-maximal inhibition (IC50) with NLRP3 inflammasome (LPS-primed) turned out to be 0.236 µM. Also, the Kp at 0.25 h in data set [1] came out at 1.56.

For the molecule `CC(C)c1nn(CC(=O)N[C@@H]2CCCN(CC(C)(C)O)C2)c(=O)c2cc3ccsc3n12` [Example 23, (R)—N-(1-(2-hydroxy-2-methylpropyl)piperidin-3-yl)-2-(8-isopropyl-5-oxothieno[3′,2′:4,5]pyrrolo[1,2-d][1,2,4]triazin-6(5H)-yl)acetamide formate], in the data set on TNF-α secretion, the inhibition at 3 µM stood at 1.8% and the inhibition at 10 µM came out at 3.3%. The IC50 with NLRP3 inflammasome (THP-1, LPS-primed) was found to be 0.311 µM.
